Reference: patent publication US10865204B2, “Degradation of cyclin-dependent kinase 4/6 (CDK4/6) by conjugation of CDK4/6 inhibitors with E3 ligase ligand and methods of use” (Dana-Farber Cancer Institute, Inc., priority 2016, dated 2020)

Experiments:
CDK4 [1] = biological target: T1, CDK4 (Homo sapiens, UniProt P11802); assay: Enzyme degradation assay (western blot), Jurkat cells, CDK4; type: cell-based; design: levels of CDK4, CDK6, and tubulin in wild-type (WT) or cereblon knockout (CRBN−/−) Molt4 cells; endogenous in cells; details: 5 μM, various time points, FIG. 1
T1 sequence (P11802 whole entry): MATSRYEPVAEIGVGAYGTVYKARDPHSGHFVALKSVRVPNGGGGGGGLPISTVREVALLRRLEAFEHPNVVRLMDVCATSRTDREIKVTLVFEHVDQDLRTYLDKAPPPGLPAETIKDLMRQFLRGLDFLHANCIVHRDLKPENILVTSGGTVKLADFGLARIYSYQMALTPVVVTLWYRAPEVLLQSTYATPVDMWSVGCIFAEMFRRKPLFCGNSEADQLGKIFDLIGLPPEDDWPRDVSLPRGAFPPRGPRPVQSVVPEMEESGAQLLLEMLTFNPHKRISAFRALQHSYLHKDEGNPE
Source text: (§1) Lysates are then cleared by centrifugation.
(§2) Lysates were then cleared by centrifugation.

CDK4 [2] = biological target: T1, CDK4; assay: Enzyme degradation assay (western blot), Molt4 wild-type cells, CDK4; type: cell-based; design: levels of CDK4, CDK6, and tubulin in wild-type (WT) or cereblon knockout (CRBN−/−) Molt4 cells; endogenous in cells; host or cells: Molt4 cells, wild-type or cereblon knockout (CRBN-/-); details: wild-type (WT) Molt4 cells, various concentrations, FIG. 2
Source text: as §1, §2

CC(=O)c1c(C)c2cnc(Nc3ccc(N4CCN(CC(=O)NCCOCCOCCOCCNc5cccc6c5C(=O)N(C5CCC(=O)NC5=O)C6=O)CC4)cn3)nc2n(C2CCCC2)c1=O (centres unmarked) [Compound I-3, 2-(4-(6-((6-acetyl-8-cyclopentyl-5-methyl-7-oxo-7,8-dihydropyrido[2,3-d]pyrimidin-2-yl)amino)pyridin-3-yl)piperazin-1-yl)-N-(2-(2-(2-(2-((2-(2,6-dioxopiperidin-3-yl)-1,3-dioxoisoindolin-4-yl)amino)ethoxy)ethoxy)ethoxy)ethyl)acetamide]
levels of CDK4 (western blot) (CDK4 [1]): unaffected | levels of CDK4 (western blot) (CDK4 [2]): unaffected
